pKd: −log10 of the molar value.
Target: T1, UBE2T (Homo sapiens, UniProt Q9NPD8)
T1 construct: fluorescently labelled UBE2T protein for MST
Assay: microscale thermophoresis
Assay type: binding
Details: fluorescently labelled UBE2T; compound titrated 31 nM to 500 μM

T1 sequence (Q9NPD8 whole entry): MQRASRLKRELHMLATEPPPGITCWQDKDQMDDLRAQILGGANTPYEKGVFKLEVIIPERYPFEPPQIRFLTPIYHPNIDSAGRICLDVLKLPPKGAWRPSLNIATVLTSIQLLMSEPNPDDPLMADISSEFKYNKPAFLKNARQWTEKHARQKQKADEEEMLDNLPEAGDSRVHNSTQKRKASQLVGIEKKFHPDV

pKd: 4.30
Compound: NS(=O)(=O)c1ccc(NC(=O)c2c(O)c3c4c(sc3[nH]c2=O)CCCC4)cc1 [M435-1279]

From PMC7862066, “A novel UBE2T inhibitor suppresses Wnt/β-catenin signaling hyperactivation and gastric cancer progression by blocking RACK1 ubiquitination” (Oncogene, 2020)
